The target in the assay is T1, human TRPC5 (Homo sapiens, UniProt Q9UL62).
T1 construct: expressed in transfected cells
T1 sequence (Q9UL62 1-973): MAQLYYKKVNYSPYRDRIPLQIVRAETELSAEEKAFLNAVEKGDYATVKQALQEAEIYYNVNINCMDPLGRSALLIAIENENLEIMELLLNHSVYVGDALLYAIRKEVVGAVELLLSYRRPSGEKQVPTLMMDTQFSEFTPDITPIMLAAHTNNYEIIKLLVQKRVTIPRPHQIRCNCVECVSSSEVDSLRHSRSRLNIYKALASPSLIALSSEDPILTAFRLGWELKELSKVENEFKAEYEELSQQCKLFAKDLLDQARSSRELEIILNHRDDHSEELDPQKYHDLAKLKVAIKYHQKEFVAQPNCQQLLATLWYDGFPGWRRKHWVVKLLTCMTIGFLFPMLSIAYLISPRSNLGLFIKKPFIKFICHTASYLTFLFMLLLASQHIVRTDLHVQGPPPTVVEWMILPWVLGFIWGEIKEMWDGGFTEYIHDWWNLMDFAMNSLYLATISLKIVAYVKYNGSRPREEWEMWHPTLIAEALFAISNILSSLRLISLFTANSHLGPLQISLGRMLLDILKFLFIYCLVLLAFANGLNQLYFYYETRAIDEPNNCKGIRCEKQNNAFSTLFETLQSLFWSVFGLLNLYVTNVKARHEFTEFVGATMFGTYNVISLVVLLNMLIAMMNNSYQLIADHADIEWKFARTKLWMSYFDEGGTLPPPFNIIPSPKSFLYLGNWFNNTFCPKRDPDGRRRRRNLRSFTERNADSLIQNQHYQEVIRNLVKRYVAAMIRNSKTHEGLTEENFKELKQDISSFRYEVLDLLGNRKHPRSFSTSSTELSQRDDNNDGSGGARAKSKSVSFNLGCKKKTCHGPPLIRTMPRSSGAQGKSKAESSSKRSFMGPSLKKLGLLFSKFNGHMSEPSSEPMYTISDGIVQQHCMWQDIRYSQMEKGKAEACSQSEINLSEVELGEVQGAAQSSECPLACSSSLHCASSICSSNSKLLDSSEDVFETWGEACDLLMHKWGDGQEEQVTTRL
The assay can be described thus: FLIPR calcium assay, compound activation (agonism) of TRPC5 calcium response. In kind it is cell-based. More on the design: key to Agonist Potency Range (FLIPR): A=0.001-1 μM; B=1-10 μM; C=>1 μM; D=tested with a positive result for agonism, but EC50 not calculated. The note with it: ICLN-1633 cells, Fluo-4 calcium response; for EC50: read-out: Agonist Potency Range (FLIPR). As for the experimental part: ICLN-1633 cells (HEK-TREx hTRPC5) expressing TRPC5 were generated as follows. Commercially available HekTrex-293 cells were seeded at 0.7×10^6 cells/well in a 1×6-well plate 24 hrs prior to transfection using 2 mL cell growth media containing no antibiotics (1× DMEM/high glucose (Hyclone #SH30022.02); 10% fetal bovine serum (Sigma) 2 mM sodium pyruvate, 10 mM HEPES). The human TRPC5 coding sequence (NM_012471 with a silent T478C mutation) was cloned into pcDNA5/TO (Invitrogen; Cat No. V103320) using hygromycin as the resistance gene and the plasmid (SEQ ID NO:1) propagated using T-Rex-293 cells (Invitrogen; Cat No. R71007) following manufacturer's directions. On day 2, 2 μg of plasmid DNA plus 6 μl of Xtreme-GENE HP reagent in Optimem (200 μl total volume) was prepared and incubated for 15 min at room temperature. This plasmid solution was then gently overlayed dropwise onto each well and the plate was gently swirled to mix complex with the media for approximately 30 seconds. Transfected cells were incubated at 37° C. in a 10% CO2 incubator for 24 hrs. The transfected cells were harvested and transferred into 2×150 mm dishes containing cell growth media with no antibiotics at 37° C.
Compounds were made up to, or supplied as a 10 mM stock solution generally using DMSO as the vehicle. 10-point dose response curves were generated using the Echo-550 acoustic dispenser. Compound source plates were made by serially diluting compound stocks to create 10 mM, 1 mM, and 0.1 mM solutions in DMSO into Echo certified LDV plates. The Echo then serially spotted 100% DMSO stock solutions into source dose response plates to generate a 4-fold dilution scheme. 100% DMSO was added to the spotted dose response plates to bring the final volume to 5 μl. 300 nl of the dose response stock plate was then spotted into pre-incubation and stimulation assay plates. 50 μl of pre-incubation buffer and 100 μl of stimulation buffer was then added to the plates resulting in a final assay test concentration range of 30 μM to 0.0001 μM with a final DMSO concentration of 0.3%.
Human ICLN-1633 cells expressing were plated onto 384 well, black poly-D-lysine-coated microplates and maintained in TRPC5 growth media the day prior to use for experiments. TRPC5 expression was induced by the application of 1 μg/mL tetracycline at the time of plating. Media was removed from the plates and 10 μl of 4 μM of Fluo-4 AM (mixed with equal volume of Pluronic F-127) in Earls's Balanced Salt Solution (EBSS) was added to the cells. Cells were incubated at room temperature, protected from light, for 60-90 minutes. After the incubation period, the dye was removed and replaced with 10 μl of EBSS. Cell, pre-incubation and stimulation plates were loaded onto the FLIPR-II and the assay was initiated. The FLIPR measured a 10 second baseline and then added 10 μl of 2× compounds (or controls). Changes in fluorescence were monitored for an additional 5 minutes. After the 5 minute pre-incubation, 20 μl of 2× riluzole (with 1× compound or controls) was added to the cell plate. The final riluzole stimulation concentration in the assay was 30 μM. After the riluzole addition, changes in fluorescence were monitored for an additional 5 minutes. Reduction in the riluzole-activated calcium response relative to control wells was reported as inhibition. A compound-mediated increase in the riluzole response relative to control riluzole response (no test agent present) with no enhancement of calcium entry during preincubation phase was reported as an agonist response.
Compound activation (agonism) of TRPC5 calcium response was determined as follows. After the initial compound addition, fluorescence was monitored for 5 minutes. The maximum relative fluorescence response (minus the control response of EBSS buffer alone) is captured and exported from the FLIPR. Compound activation is calculated using the following formula: […]

For the compound `C[C@@H]1C(=O)N(C)c2nc(Oc3cccc(F)c3)n(Cc3ccc(Cl)cc3)c2C(=O)N1CCCO` (single isomer, unassigned) [Compound 19], the “Agonist Potency Range (FLIPR)” value is on record as “D”.
For the compound `CN1CC(=O)N(CCCO)C(=O)c2c1nc(Oc1cccc(OC(F)(F)F)c1)n2Cc1ccc(Cl)cc1` [Compound 21, 1-[(4-chlorophenyl)methyl]-7-(3-hydroxypropyl)-4-methyl-2-[3-(trifluoromethoxy)phenoxy]-1H,4H,5H,6H,7H,8H-imidazo[4,5-e][1,4]diazepine-6,8-dione], the EC50 was over 10 µM.
Regarding `O=C1c2c(nc(Oc3cccc(OC(F)(F)F)c3)n2Cc2ccc(Cl)cc2)N2CCC[C@@H]2C(=O)N1CCCO` (single isomer, unassigned) [Compound 23], the EC50 was over 10 µM.
Regarding `O=C1c2c(nc(Oc3cccc(OC(F)(F)F)c3)n2Cc2ccc(Cl)cc2)N2CCC[C@H]2C(=O)N1CCCO` (single isomer, unassigned) [Compound 22], the EC50 was 1 to 10 µM.

Source of the values: US12466834B2, “Imidazodiazepinediones and methods of use thereof” (GFB (ABC), LLC, priority 2018, dated 2025).
